According to patent US10676429B2, “Sulfamoyl-arylamides and the use thereof as medicaments for the treatment of hepatitis B” (priority 2012, dated 2020):

Key:
HBV [1] = experiment: Anti-HBV activity in stable transfected HepG2.2.15 cell line (HBV DNA from secreted virions, realtime PCR); assay type: cell-based; details: HepG2.2.15 cells, 6 days of treatment, secreted virion HBV DNA, read-out: HepG2 2.15 EC50
HBV [2] = experiment: Anti-HBV activity in HepG2.117 cell line (Tet-off, intracellular HBV DNA, realtime PCR); assay type: cell-based; details: HepG2.117 cells, 3 days of treatment, intracellular HBV DNA, read-out: HepG2 117 EC50
[3] = Cytotoxicity in HepG2 cells, 4 days, Resazurin assay; details: human, HepG2 cells
[4] = Hepatitis B virus, HepG2.2.15, 144 h
[5] = Hepatitis B virus, HepG2.117, 72 h

SMILES | EC50 (HBV [1]; [4]) [nM] | EC50 (HBV [2]; [5]) [nM] | CC50 at 4 days [3] [nM] | EC50 (HBV [1]) [nM] | EC50 (HBV [2]) [nM]
Cc1cc(NC(=O)c2cccc(S(=O)(=O)N[C@@H]3CCCC[C@H]3O)c2)ccc1F (racemic) [Compound 130] | 880 | 1030 | > 25000 |  | 
Cc1cc(NC(=O)c2cccc(S(=O)(=O)N[C@@H]3CCCC[C@@H]3O)c2)ccc1F (racemic) [Compound 132] | 590 | 730 | > 25000 |  | 
COC(=O)N1CCCC(NS(=O)(=O)c2cccc(C(=O)Nc3ccc(F)c(C)c3)c2)C1 (racemic) [Compound 159] | 150 |  | > 25000 |  | 
COC(=O)N1CCCC(NS(=O)(=O)c2cccc(C(=O)Nc3ccc(F)c(C)c3)c2)C1 (racemic) [Compound 159a] |  |  |  | 170 | 860
COC(=O)N1CCCC(NS(=O)(=O)c2cccc(C(=O)Nc3ccc(F)c(C)c3)c2)C1 (racemic) [Compound 159b] |  |  |  | 160 | 230
Cc1cc(NC(=O)c2cccc(S(=O)(=O)NC3CC(=O)N(C)C3)c2)ccc1F (racemic) [Compound 179] |  |  | > 25000 |  | 
Cc1cc(NC(=O)c2cccc(S(=O)(=O)NC3CCCC(O)C3)c2)ccc1F (single isomer, unassigned) [Compound 134a, N-(4-fluoro-3-methyl-phenyl)-3-[[(1R,3S)-3-hydroxycyclohexyl]sulfamoyl]benzamide or N-(4-fluoro-3-methyl-phenyl)-3-[[(1S,3R)-3-hydroxycyclohexyl]sulfamoyl]benzamide] |  |  |  | 660 | 720
Cc1cc(NC(=O)c2cccc(S(=O)(=O)NC3CCCC(O)C3)c2)ccc1F (single isomer, unassigned) [Compound 134b, N-(4-fluoro-3-methyl-phenyl)-3-[[(1R,3S)-3-hydroxycyclohexyl]sulfamoyl]benzamide or N-(4-fluoro-3-methyl-phenyl)-3-[[(1S,3R)-3-hydroxycyclohexyl]sulfamoyl]benzamide] |  |  |  | 570 | 200
Cc1cc(NC(=O)c2cccc(S(=O)(=O)NC3CCCC(O)C3)c2)ccc1F (single isomer, unassigned) [Compound 134c, N-(4-fluoro-3-methyl-phenyl)-3-[[(1R,3R)-3 hydroxycyclohexyl]sulfamoyl]benzamide or N-(4-fluoro-3-methyl-phenyl)-3-[[(1S,3S)-3-hydroxycyclohexyl]sulfamoyl]benzamide] |  |  |  | 490 | 380
Cc1cc(NC(=O)c2cccc(S(=O)(=O)NC3CCCC(O)C3)c2)ccc1F (single isomer, unassigned) [Compound 134d, N-(4-fluoro-3-methyl-phenyl)-3-[[(1R,3R)-3 hydroxycyclohexyl]sulfamoyl]benzamide or N-(4-fluoro-3-methyl-phenyl)-3-[[(1S,3S)-3-hydroxycyclohexyl]sulfamoyl]benzamide] |  |  |  | 250 | 1220
Cc1cc(NC(=O)c2cccc(S(=O)(=O)NC3Cc4ccccc4C3O)c2)ccc1F (single isomer, unassigned) [Compound 141a, N-(4-fluoro-3-methyl-phenyl)-3-[[(1S,2S)-1-hydroxyindan-2-yl]-sulfamoyl]benzamide or N-(4-fluoro-3-methyl-phenyl)-3-[[(1R,2R)-1-hydroxyindan-2-yl]sulfamoyl]benzamide] |  |  | > 25000 | 700 | 1650
Cc1cc(NC(=O)c2cccc(S(=O)(=O)NC3CCC(O)C3)c2)ccc1F (single isomer, unassigned) [Compound 145a, N-(4-fluoro-3-methyl-phenyl)-3-[[(1R,3S)-3-hydroxycyclopentyl]sulfamoyl]benzamide or N-(4-fluoro-3-methyl-phenyl)-3-[[(1S,3R)-3-hydroxycyclopentyl]sulfamoyl]benzamide] |  |  | > 25000 | 140 | 210
O=C(Nc1cccc(C(F)(F)F)c1)c1cc(S(=O)(=O)NC2CCCCC2)ccc1F [Compound 7] | 660 | 560 | 11400 |  | 
Cc1cc(NC(=O)c2cccc(S(=O)(=O)NC3CCCC3)c2)ccc1F [Compound 11] | 100 | 420 | 19600 |  | 
Cc1cc(F)cc(NC(=O)c2cccc(S(=O)(=O)NC3CCCC3)c2)c1 [Compound 12] | 110 | 1510 | 13300 |  | 
Cc1ccc(NC(=O)c2cccc(S(=O)(=O)NC3CCCC3)c2)cc1F [Compound 13] | 1990 | 15300 | 13800 |  | 
O=C(Nc1ccc(F)c(F)c1)c1cccc(S(=O)(=O)NC2CCCC2)c1 [Compound 14] | 90 | 360 | 11700 |  | 
O=C(Nc1ccccc1)c1csc(S(=O)(=O)NC2CCCCC2)n1 [Compound 64] |  | 7830 | > 25000 |  | 
CC1(NS(=O)(=O)c2cccc(C(=O)Nc3ccc(F)cc3)c2)CCOCC1 [Compound 83] | 1040 | 1230 |  |  | 
Cc1cc(NC(=O)c2cccc(S(=O)(=O)NC3CCCC(O)C3)c2)ccc1F (centres unmarked) [Compound 134] |  |  | > 25000 |  | 570
Cc1c(Br)cc(S(=O)(=O)N[C@H]2CCOC2)c(F)c1C(=O)Nc1ccc(F)c(F)c1 [Compound 187] |  | 950 | > 25000 |  | 
Cc1ccc(S(=O)(=O)N[C@H]2CCOC2)c(F)c1C(=O)Nc1ccc(F)c(F)c1 [Compound 188] |  | 240 | > 25000 |  | 
Cc1cc(NC(=O)c2c(C)ccc(S(=O)(=O)N[C@H]3CCOC3)c2F)ccc1F [Compound 189] |  | 350 | > 25000 |  | 
Cc1cc(NC(=O)c2c(C)c(Br)cc(S(=O)(=O)NC3(C)COC3)c2F)ccc1F [Compound 190] |  | 270 | > 25000 |  | 
